Reference: patent publication US7531318B2, “Screening of agents for activity against ischemic myocardial insults” (priority 2004, dated 2009)

Test system: C57BL/6J mice after ligation of the left anterior descending coronary artery
Test: Myocardial infarction by coronary artery ligation: echocardiography, scar, TUNEL
Type: in vivo, mouse
From the text: Immunohistochemistry. Embryonic or adult cardiac tissue was embedded in paraffin and sections used for immunohistochemistry. […] Adult hearts were sectioned at ten equivalent levels from the base of the heart to the apex. Serial sections were used for trichrome sections and reaction with muscle actin, c-kit, Sca-1, Abcg2 and BrdU antibodies and for TUNEL assay (Intergen Company S7111).
Animals and surgical procedures. Myocardial infarction was produced in 58 male C57BL/6J mice at 16 weeks of age (25-30 g) by ligation of the left anterior descending coronary artery as previously described (Garner et al., 2003). All animal protocols were reviewed and approved by the University of Texas Southwestern Medical Center Institutional Animal Care Advisory Committee and were in compliance with the rules governing animal use as published by the NIH. Twenty-nine of the ligated mice received thymosin β4 treatment immediately after ligation and the remaining 29 received PBS injections. Treatment was given intracardiac with thymosin β4 (200 ng in 10 μl collagen) or with 10 μl of collagen; intraperitoneally with thymosin β4 (150 μg in 300 μl PBS) or with 300 μl of PBS; or by both intracardiac and intraperitoneal injections. Intraperitoneal injections were given every 3 days until mice were killed. Doses were based on previous studies of thymosin β4 biodistribution (Mora et al., 1997). Hearts were removed, weighed and fixed for histological sectioning. Additional mice were operated on in a similar fashion for studies 0.5, 1, 3, 6 and 11 days after ligation.
Analysis of cardiac function by echocardiography. Echocardiograms to assess systolic function were performed using M-mode and two-dimensional measurements as described previously (Garner et al., 2003). The measurements represented the average of six selected cardiac cycles from at least two separate scans performed in random-blind fashion with papillary muscles used as a point of reference for consistency in level of scan. End diastole was defined as the maximal left ventricle diastolic dimension and end systole was defined as the peak of posterior wall motion. Single outliers in each group were omitted for statistical analysis. Fractional shortening (FS), a surrogate of systolic function, was calculated from left ventricle dimensions as follows: FS=((EDD−ESD)/EDD)×100%. Ejection fraction (EF) was calculated from two-dimensional images.
Calculation of scar volume. Scar volume was calculated using six sections through the heart of each mouse using Openlab 3.03 software (Improvision) similar to that previously described (Balsam et al., 2004). Percent area of collagen deposition was measured on each section in a blinded fashion and averaged for each mouse.
Statistical analyses. Statistical calculations were performed using a standard t-test of variables with 95% confidence intervals.
Thymosin β4 promotes cell survival after myocardial infarction and improves cardiac function. Because of the effects of thymosin β4 on cardiac cells in vitro, the inventors tested whether thymosin β4 might aid in cardiac repair in vivo after myocardial damage. The inventors created myocardial infarctions in 58 adult mice by coronary artery ligation and treated half with systemic, intracardiac, or systemic plus intracardiac thymosin β4 immediately after ligation and the other half with PBS (FIGS. 4A-E). All 45 mice that survived 2 weeks later were interrogated for cardiac function by random-blind ultrasonography at 2 and 4 weeks after infarction by multiple measurements of cardiac contraction (FIGS. 4A-D).
TUNEL-positive cells that were also myocytes were rare in the thymosin β4 group but abundant in the control hearts. […] Thus, the decreased scar volume and preserved function of thymosin-β4-treated mice were probably due to early preservation of myocardium after infarction through the effects of thymosin β4 on survival of cardiomyocytes.

thymosin β4
cardiomyocyte proliferation or death (3, 6, 11 or 14 days after coronary ligation, data not shown): did not detect significant
cell death by TUNEL assay in cardiomyocytes (24 h after ligation): marked decrease
TUNEL-positive cells that were also myocytes (24 h after ligation, abundant in control hearts): rare
ejection fraction (3 days after infarction, intracardiac treatment, control 44.7±8.4%, P<0.02): 64.2±6.69%
left ventricle fractional shortening (3 days after infarction, intracardiac treatment, n=4, 95% confidence interval, control 28.8±2.26%, P<0.02): 39.2±2.34%
cardiac dilation (end diastolic and end systolic dimensions) (after infarction, EDD and ESD significantly higher in control group): decreased cardiac dilation
mean ejection fraction (four weeks after coronary ligation, n=23, 95% confidence interval, control 28.2±2.5%, P<0.0001): 57.7±3.2%
mean left ventricular fractional shortening (four weeks after infarction, n=23, 95% confidence intervals, control 23.2±1.2%, P<0.0001): 37.2±1.8%
scar volume (six levels of sections through left ventricle, subset of mice, P<0.05): significant reduction
degree of functional improvement, intraperitoneal versus intracardiac administration (systemic i.p. 150 μg vs local 200 ng within the infarct): not statistically different
size of scar (trichrome stain) (three levels of section, all treated mice): reduced
number of c-kit, Sca-1 or Abcg2 positive cardiomyocytes (treated vs untreated hearts, data not shown): failed to detect any differences
size of scar, systemic versus local delivery (trichrome stain): not different
improvement in cardiac fractional shortening (versus control, four weeks): greater than 60%
improvement in ejection fraction (versus control, four weeks): > 100%
